Experiments:
[1] = molecular target: T1, Cysteinyl leukotriene receptor 1 (Homo sapiens, UniProt Q9Y271); assay type: cell membranes, Membrane; conditions: cho-k1; also: in other assays of this panel Not Active means under 50% inhibition at 10 µM
T1 sequence (Q9Y271 whole entry): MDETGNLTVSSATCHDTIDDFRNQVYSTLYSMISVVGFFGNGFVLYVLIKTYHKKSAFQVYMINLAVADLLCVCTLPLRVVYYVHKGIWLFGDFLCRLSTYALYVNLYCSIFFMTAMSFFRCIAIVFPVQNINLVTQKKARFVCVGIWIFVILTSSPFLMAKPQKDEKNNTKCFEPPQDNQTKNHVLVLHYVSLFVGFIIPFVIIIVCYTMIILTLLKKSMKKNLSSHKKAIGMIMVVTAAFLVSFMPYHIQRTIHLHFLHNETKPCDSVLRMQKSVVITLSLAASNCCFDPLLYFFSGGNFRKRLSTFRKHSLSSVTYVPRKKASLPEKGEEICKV

Substance-K receptor = molecular target: T2, Substance-K receptor (Homo sapiens, UniProt P21452); assay type: cell membranes, CHO, Membrane; conditions: cho; also: in other assays of this panel Not Active means under 50% inhibition at 10 µM
T2 sequence (P21452 whole entry): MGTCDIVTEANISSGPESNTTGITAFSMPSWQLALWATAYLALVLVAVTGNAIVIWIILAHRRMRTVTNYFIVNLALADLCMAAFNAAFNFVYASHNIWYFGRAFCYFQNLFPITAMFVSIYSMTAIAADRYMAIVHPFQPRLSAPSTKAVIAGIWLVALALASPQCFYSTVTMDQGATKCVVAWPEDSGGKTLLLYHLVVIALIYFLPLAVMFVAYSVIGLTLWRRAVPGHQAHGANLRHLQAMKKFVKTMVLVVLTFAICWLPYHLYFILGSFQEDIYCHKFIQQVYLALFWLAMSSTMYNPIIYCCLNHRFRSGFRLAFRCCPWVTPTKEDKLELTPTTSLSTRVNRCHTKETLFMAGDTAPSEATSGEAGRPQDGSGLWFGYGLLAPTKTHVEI

Progesterone receptor = molecular target: T3, Progesterone receptor (Bos taurus, UniProt Q690N0); assay: DRUGMATRIX: Progesterone radioligand binding (ligand: [3H] R-5020); assay type: tissue-based, Uterus; conditions: Not Active = under 50% inhibition at 10 µM
T3 sequence (Q690N0 whole entry): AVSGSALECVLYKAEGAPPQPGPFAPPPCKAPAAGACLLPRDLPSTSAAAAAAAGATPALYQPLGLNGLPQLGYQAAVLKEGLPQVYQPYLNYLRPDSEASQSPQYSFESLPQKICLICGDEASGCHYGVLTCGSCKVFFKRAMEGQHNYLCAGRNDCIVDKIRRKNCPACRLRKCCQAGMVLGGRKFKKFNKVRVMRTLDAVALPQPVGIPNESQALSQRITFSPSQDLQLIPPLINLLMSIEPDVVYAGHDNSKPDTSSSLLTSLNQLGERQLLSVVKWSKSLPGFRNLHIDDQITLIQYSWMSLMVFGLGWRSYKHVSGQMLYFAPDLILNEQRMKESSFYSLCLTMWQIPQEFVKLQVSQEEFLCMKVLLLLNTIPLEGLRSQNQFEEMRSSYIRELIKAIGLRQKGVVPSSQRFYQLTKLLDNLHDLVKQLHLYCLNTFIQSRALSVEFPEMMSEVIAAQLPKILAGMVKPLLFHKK

[2] = molecular target: T4, Muscarinic acetylcholine receptor M4 (Homo sapiens, UniProt P08173); assay type: cell membranes, CHO-K1, Membrane; conditions: cho-k1; also: in other assays of this panel Not Active means under 50% inhibition at 10 µM
T4 sequence (P08173 whole entry): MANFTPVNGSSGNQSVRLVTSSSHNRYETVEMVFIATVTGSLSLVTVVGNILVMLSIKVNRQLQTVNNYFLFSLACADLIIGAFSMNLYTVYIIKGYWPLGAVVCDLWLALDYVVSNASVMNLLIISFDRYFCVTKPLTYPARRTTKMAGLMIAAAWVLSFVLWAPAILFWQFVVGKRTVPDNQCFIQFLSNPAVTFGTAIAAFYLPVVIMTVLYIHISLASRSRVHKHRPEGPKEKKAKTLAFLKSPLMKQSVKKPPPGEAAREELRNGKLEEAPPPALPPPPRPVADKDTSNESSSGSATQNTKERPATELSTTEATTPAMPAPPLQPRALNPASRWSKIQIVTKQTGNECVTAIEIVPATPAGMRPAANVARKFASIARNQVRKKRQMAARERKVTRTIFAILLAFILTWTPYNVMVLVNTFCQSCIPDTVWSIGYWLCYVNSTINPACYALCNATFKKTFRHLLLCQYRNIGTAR

Endothelin-1 receptor = molecular target: T5, Endothelin-1 receptor (Homo sapiens, UniProt P25101); assay type: cell membranes, Membrane; conditions: cho-k1; also: in other assays of this panel Not Active means under 50% inhibition at 10 µM
T5 sequence (P25101 whole entry): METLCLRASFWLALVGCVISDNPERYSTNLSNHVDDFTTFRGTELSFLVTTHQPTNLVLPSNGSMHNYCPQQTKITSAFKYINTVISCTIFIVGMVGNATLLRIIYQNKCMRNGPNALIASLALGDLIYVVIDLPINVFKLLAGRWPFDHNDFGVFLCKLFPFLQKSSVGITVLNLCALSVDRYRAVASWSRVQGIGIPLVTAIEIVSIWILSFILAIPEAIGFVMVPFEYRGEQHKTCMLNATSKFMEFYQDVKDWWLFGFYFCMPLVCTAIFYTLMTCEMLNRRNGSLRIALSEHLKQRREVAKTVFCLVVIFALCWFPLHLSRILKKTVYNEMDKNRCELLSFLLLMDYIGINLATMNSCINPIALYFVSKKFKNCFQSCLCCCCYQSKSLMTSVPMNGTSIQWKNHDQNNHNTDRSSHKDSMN

Cytochrome P450 2E1 = Cytochrome P450 2E1 (Homo sapiens, UniProt P05181); conditions: bti-tn-5b1-4; also: in other assays of this panel Not Active means under 50% inhibition at 10 µM
Cytochrome P450 2E1, sequence (P05181 whole entry): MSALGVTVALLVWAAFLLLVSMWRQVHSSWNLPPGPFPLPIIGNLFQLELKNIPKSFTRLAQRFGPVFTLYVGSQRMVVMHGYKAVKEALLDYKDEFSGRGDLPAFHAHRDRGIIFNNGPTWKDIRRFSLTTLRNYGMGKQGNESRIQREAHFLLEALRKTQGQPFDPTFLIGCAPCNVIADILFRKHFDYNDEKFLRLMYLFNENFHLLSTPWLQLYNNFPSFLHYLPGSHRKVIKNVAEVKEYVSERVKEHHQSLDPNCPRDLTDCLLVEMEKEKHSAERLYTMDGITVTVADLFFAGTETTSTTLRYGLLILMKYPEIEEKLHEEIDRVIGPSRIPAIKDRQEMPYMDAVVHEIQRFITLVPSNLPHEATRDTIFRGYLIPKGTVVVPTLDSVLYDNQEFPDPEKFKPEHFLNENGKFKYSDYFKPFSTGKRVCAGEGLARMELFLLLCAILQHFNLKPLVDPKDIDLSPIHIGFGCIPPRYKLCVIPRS

[3] = molecular target: Platelet-activating factor receptor (Homo sapiens, UniProt P25105); assay type: tissue-based; also: in other assays of this panel Not Active means under 50% inhibition at 10 µM
Platelet-activating factor receptor, sequence (P25105 whole entry): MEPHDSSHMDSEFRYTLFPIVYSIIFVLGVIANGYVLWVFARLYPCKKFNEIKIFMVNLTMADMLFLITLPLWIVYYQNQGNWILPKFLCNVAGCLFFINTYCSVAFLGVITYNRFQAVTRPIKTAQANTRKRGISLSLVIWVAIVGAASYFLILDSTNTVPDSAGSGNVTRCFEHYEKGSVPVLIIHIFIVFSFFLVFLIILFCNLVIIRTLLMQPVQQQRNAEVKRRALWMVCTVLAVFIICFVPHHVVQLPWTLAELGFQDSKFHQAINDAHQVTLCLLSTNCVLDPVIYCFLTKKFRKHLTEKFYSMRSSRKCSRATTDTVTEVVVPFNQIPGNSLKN

CC(=N)S [THIOACETAMIDE]
Not Active: IC50 [1] | IC50 (Substance-K receptor) | IC50 (Progesterone receptor) | IC50 [2] | IC50 (Endothelin-1 receptor) | IC50 (Cytochrome P450 2E1) | Ki (Cytochrome P450 2E1) | IC50 [3]

Cc1ccc(C(=O)c2ccc(CC(=O)O)n2C)cc1 [TOLMETIN]
Not Active: IC50 [1] | IC50 (Substance-K receptor) | IC50 (Progesterone receptor) | IC50 [2] | IC50 (Endothelin-1 receptor) | IC50 (Cytochrome P450 2E1) | Ki (Cytochrome P450 2E1) | IC50 [3]

CC(=O)OCC(COC(C)=O)OC(C)=O [TRIACETIN]
Not Active: IC50 [1] | IC50 (Substance-K receptor) | IC50 (Progesterone receptor) | IC50 [2] | IC50 (Endothelin-1 receptor) | IC50 (Cytochrome P450 2E1) | Ki (Cytochrome P450 2E1) | IC50 [3]

CN1CCN(CCCN2c3ccccc3Sc3ccc(C(F)(F)F)cc32)CC1 [TRIFLUOPERAZINE]
Not Active: IC50 [1] | IC50 (Substance-K receptor) | IC50 (Progesterone receptor) | IC50 [2] | IC50 (Endothelin-1 receptor) | IC50 (Cytochrome P450 2E1) | Ki (Cytochrome P450 2E1) | IC50 [3]

TRANSPLATIN
Not Active: IC50 [1] | Ki [1] | IC50 (Substance-K receptor) | Ki (Substance-K receptor) | IC50 (Progesterone receptor) | Ki (Progesterone receptor) | IC50 [2] | Ki [2] | IC50 (Endothelin-1 receptor) | Ki (Endothelin-1 receptor) | IC50 (Cytochrome P450 2E1) | Ki (Cytochrome P450 2E1) | IC50 [3] | Ki [3]

ZIRCONIUM(IV) CHLORIDE
Not Active: IC50 [1] | Ki [1] | IC50 (Substance-K receptor) | Ki (Substance-K receptor) | IC50 (Progesterone receptor) | Ki (Progesterone receptor) | IC50 [2] | Ki [2] | IC50 (Endothelin-1 receptor) | Ki (Endothelin-1 receptor) | IC50 (Cytochrome P450 2E1) | Ki (Cytochrome P450 2E1) | IC50 [3] | Ki [3]
